Measured values as given in a melting point compilation (Tetko et al.; mined from patent text by program, amines drawn as free bases though some values may be those of a salt).
Residues, ends and D or L forms follow the SMILES beside them.

| Compound | melting point [°C] |
| --- | --- |
| O=C(c1ccc2nonc2c1)N1C2CCCC1COC2 | 128 to 130 |
| O=C(NCCc1ccc(CN2CCCC2)cc1)N1CCC(c2ccc(Cl)cc2)CC1 | 116 to 117 |
| CCOP(=O)(OCC)Oc1c(Br)c(C)nc(C)c1-c1ccc(Oc2ccc(OC(F)(F)F)cc2)cc1 | 80 to 81 |
| CC=NOCc1nc2c(N)nc3ccccc3c2n1CC(C)C | 155 to 156 |
| CC(N)CC(=O)Nc1c(OCC(F)(F)F)cccc1-c1ccccn1 (stereo not drawn) | 135 to 137 |
| CCc1cc(O)c2cccc(OC)c2n1 | 190 to 192 |
| CC(=O)Nc1ccc(S(=O)(=O)N2CCN(c3c(F)cc4c(=O)c(C(=O)O)cn(CC(C)C)c4c3F)CC2)cc1 | 181 to 183 |
| O=c1[nH]c(=O)n(C2OC(CO)C(O)C2F)cc1I (stereo not drawn) | 216 to 217 |
| CCC(C(N)=O)N(Cc1ccc2nc(NCCCN3CCOCC3)n(Cc3nc(C)ccc3OC)c2c1)c1cc(C)cc(C)c1 (stereo not drawn) | 130 |
| CS(=O)(=O)N(CCc1ccccn1)CC(O)(Cn1cncn1)c1ccc(Cl)cc1Cl (stereo not drawn) | 151 to 153 |
| Cn1ncnc1COc1nn2c(-c3ccccc3F)nnc2cc1C1CC(F)(F)C1 | 178 |
| CN(C)C=Nc1[nH]nc(NCCNC(=O)OC(C)(C)C)c1C#N | 158 to 160 |
| O=C(Nc1ccccc1)N1C(=S)C2(CCCCC2)NC12CCCCC2 | 143 to 144 |
| CCc1cc(C(=O)O)ccc1O | 134 to 136 |
| Clc1ccc(CN2CC=C(C=Cc3ccsc3)CC2)cc1 | 125 to 127 |
| Nc1nc2c(s1)CCN(CC=Cc1ccccc1)CC2 | 120 to 124 |
| CC(=O)OC1CSC(OC(=N)C(Cl)(Cl)Cl)C(OC(C)=O)C1OC(C)=O (stereo not drawn) | 110 |
| COc1ccc(C=C[N+](=O)[O-])cc1OC1CCCC1 | 133 to 134 |
| CCOC(=O)C1=C(C)NC(c2cscn2)=NC1c1ccc(F)cc1Cl (stereo not drawn) | 140 to 142 |
| Nc1nc(O)c2cc(C#Cc3ccc(C(=O)O)cc3)cnc2n1 | > 260 |
| Cc1noc(NS(=O)(=O)c2cccc(C(F)(F)F)c2)c1Br | 113 to 115 |
| Cn1ccn(Cc2ccc([N+](=O)[O-])cc2)c1=S | 162 to 168 |
| CCCc1ccc(C2c3c(C)c(N)c(C)c(C)c3OC2(C)C)cc1 (stereo not drawn) | 68 to 69 |
| COC(=O)C(Cc1ccccc1)NC(=O)C(CC(=O)O)NC(=O)CN (stereo not drawn) (H-Gly-Asp-Phe-OMe; configuration not given here) | 233 to 235 |

| Compound | melting point [°C] |
| --- | --- |
| Cc1ccc(S(=O)(=O)Nc2ccc(N)c(C3CCCC3)c2)cc1 | 128 |
| COc1cc([N+](=O)[O-])ccc1OCC(=O)C1CC1 | 112 to 113 |
| O=C(NC1CCC(CCN2CCC(c3cccc4c3CCO4)CC2)CC1)C1CCCO1 (racemic) | 160 |
| COc1ccc2[nH]c3c(c2c1)CCC(C(=O)O)C3 (stereo not drawn) | 226 to 228 |
| CC1(C)Oc2ccc(S(=O)(=O)C(F)(F)F)cc2[C@@H](N2Cc3c(cccc3[N+](=O)[O-])C2=O)[C@@H]1O (relative stereo) | 292 to 295 |
| C#CCn1ccc(CO)c1C#N | 65 |
| CCn1nc(Br)c([N+](=O)[O-])c1Br | 119 to 121 |
| COC(=O)C=Cc1ccc(-c2ccc(C=CC(=O)OC)cc2C(F)(F)F)c(C(F)(F)F)c1 | 158 to 161 |
| CC(C)OC(=O)C(C(=O)OC(C)C)=C1SC2C(S1)N(C(C)C)CCN2C(C)C (stereo not drawn) | 82 to 84 |
| O=C(O)c1cc2cc(Cl)ccc2nc1N[C@@H](CC1CCCCC1)C(=O)O | 160 to 168 |
| COC(=O)c1cnc2c3cc(NC(=O)C4CCCCC4)ccc3ncn2c1=O | 250 to 251 |
| COc1ccnc(N2CCN(CC3(CNC(C)=O)C=CC=CC3)CC2)n1 (stereo not drawn) | 144 to 145 |
| CC(C)(C)N=NC(C)(C#N)COC(=O)c1ccccc1 (stereo not drawn) | 57 to 59 |
| Clc1ccc(-c2nnco2)cc1 | 129 |
| CC(C)N(C(=O)c1nn(-c2ccc(F)cc2F)c2c1C1CCC2C1)C(C)C (stereo not drawn) | 107 to 109 |
| O=c1c2ccccc2cc2n1CCS2(=O)=O | 208 to 211 |
| Cc1nn(-c2c(Cl)cc(C(F)(F)F)cc2Cl)nc1CC#N | 103 to 104 |
| COCOc1cccc2c1CCC2=O | 51 to 54 |
| O=C(O)COc1ccc(C(=O)O)c(Cl)c1Cl | > 250 |
| CCOC(=O)Cc1cnc(N)s1 | 101 |
| COc1cc2nc(N)nc(-c3ccc(C)c(Br)c3Br)c2cc1OC | 233 to 236 |
| CC(=O)Nc1ccc(-c2ncc(C(=O)O)c(O)n2)cc1 | > 310 |
| O=C1c2ccccc2C(=O)c2c(NC(=O)C3CC3)ccc(NC(=O)C3CC3)c21 | > 200 |
| N#Cc1ccc(CN2CC=C(c3nc4ccccc4s3)CC2)cc1 | 165 to 166 |

Next, values leading:

| melting point [°C] | Compound |
| --- | --- |
| 229 | CCCn1nc(CC)c(C(=O)O)c1Cc1ccc(-c2ccccc2-c2nnn[nH]2)cc1 |
| 211 to 212 | CC(C)(C)OC(=O)NCCCn1c2c(c3ccc(NC(=O)CC(=O)O)cc3c1=O)C(=O)c1ccccc1-2 |
| > 270 | O=c1[nH]c2cc([N+](=O)[O-])c(S(=O)(=O)c3cccc4cnccc34)cc2o1 |
| 70 to 71 | CCOC(=O)C(Cc1ccccc1)(Cc1ccc([N+](=O)[O-])cc1)C(=O)OCC |
| 160 to 161 | COc1cccc2c(-c3ccccc3)c([N+](=O)[O-])oc12 |
| 70 to 71 | Cc1cc(-c2ccccc2)n2nccc2n1 |
| 92 to 93 | CCOc1nn(-c2ccccn2)cc1CCCOc1ccc(CCC(=O)O)cc1OC |
| 249 to 252 | COc1cccc(-c2ccnc3c(C(N)=O)ncn23)c1 |
| 180 | CC(C)c1ccc(N(CC(=O)N2CCOCC2)C(=O)C2CCCc3ccccc32)cc1 (stereo not drawn) |
| 138 | O=C(NO)[C@H](CNS(=O)(=O)c1ccc(OCc2c(C(F)(F)F)nn3ccccc23)cc1)N1CCN(Cc2ccccc2)CC1 |
| 272 | Cc1cccc(C)c1CNc1cc(C(N)=O)cc2c1nc(C)n2C |
| 191 to 193 | O=C1C(Cc2ccccc2C(F)F)c2ccccc2C12COc1cc3c(cc12)OCCO3 (stereo not drawn) |
| 53 to 55 | COc1cccc(OCCCSCCC(=O)O)c1 |
| 165 to 167 | CS(=O)(=O)c1ccc(-c2cnn(CC=Cc3ccccc3)c(=O)c2-c2ccc(F)cc2)cc1 |
| 231 to 233 | CCc1cnc2c(NC(=O)c3c(Cl)cccc3Cl)cccc2c1C(=O)O |
| 86 to 90 | O=S(=O)(Nc1cccc2c(Cl)c[nH]c12)c1ccc(CCCn2ccnc2)cc1 |
| 169 to 171 | CCCOCCN(CC)c1ccc(-c2ccc3c(c2)C=C(C(=O)O)CCN3C=O)cc1 |
| > 230 | NS(=O)(=O)c1ccc(NN=C2C(=O)Nc3ccc(C(=O)NCCn4ccnc4)cc32)cc1 |
| 183 to 185 | COc1cccc(-n2c(-c3ccccc3)cc(=O)c(C)c2-c2ccccc2)c1 |
| 102 to 106 | Cc1ccc(C=Nc2ccc(Cl)cc2Cl)c(C)c1 |
| 170 to 173 | CC(=O)CC(=O)Nc1c(C(=O)c2ccccc2)[nH]c2cc(Cl)ccc12 |
| 110 to 112 | N#CN=C(NCCC[C@@H](NC(=O)C(c1ccccc1)c1ccccc1)C(=O)NCc1ccc(O)cc1)Oc1ccccc1 |
| 166 to 168 | Nc1ncnc2c1c(-c1ccccc1)cn2-c1cccc(OCCCl)c1 |
| 205 to 206 | CCN(CCOc1cccc2ccccc12)c1ccc(C(=O)O)cc1 |
| 80 to 81 | COc1ccc(CSCCNC(=O)c2c(Cl)cccc2Cl)cc1 |

| melting point [°C] | Compound |
| --- | --- |
| 232 to 234 | COc1cc(Cl)cc2nc(S(=O)(=O)Nc3c(Cl)cccc3Cl)nn12 |
| 75 to 77 | CC1(COc2ccc(OCCN3CC(COc4ccccc4)OC3=O)cc2)OCCO1 (stereo not drawn) |
| 191 to 195 | Cc1ccc(F)cc1C(=O)Nc1ccc(C(=O)N2Cc3cccn3Cc3ccccc32)c(Cl)c1 |
| 71 to 77 | COC(=O)C1=C(C)NC(C)=C(C(=O)OCCN2CCN(C(c3ccccc3)c3ccccc3)CC2)C1c1ccco1 (stereo not drawn) |
| 195 to 196 | COc1ccc(-c2cc(C(N)=O)c(=O)n(CC=Cc3ccc(Cl)cc3)n2)cc1 |
| 94 to 95 | O=Cc1ccccc1Oc1ccc(F)cc1[N+](=O)[O-] |
| 144 to 145 | CC(C(=O)O)c1ccc(-c2ccccc2)cc1 (stereo not drawn) |
| 211 to 213 | Cc1cc(O)ccc1-n1cc(C(=O)O)c(=O)cc1C1=CCCC1 |
| 194 | O=C1CNN(c2cc(Cl)c(C(C(=O)O)c3ccc(Cl)cc3)c(Cl)c2)C(=O)N1 (stereo not drawn) |
| 154 | c1ccc2sc(-c3ccnc(Nc4ccc5c(c4)OCCO5)c3)cc2c1 |
| 178 to 179 | Cc1ccc(NC(=O)c2cccc(N(C)C)c2)cc1NC(=O)c1ccc(N(C)CCCN(C)C)cc1 |
| 150 | CCN(CC)C(=O)c1c(C(=O)c2cc3cnccc3n2S(=O)(=O)c2ccccc2)ccnc1OC |
| 232 to 235 | CS(=O)(=O)c1ccc(-c2cnn(-c3cccc(Cl)c3)c(=O)c2-c2ccc(F)cc2)cc1 |
| 147 to 150 | Nc1cc(C(c2cc(F)ccc2F)S(=O)(=O)c2ccc(Cl)cc2)c(Cl)cn1 (stereo not drawn) |
| 190 to 191 | C[Si](C)(C)N1CCN(N=Cc2ccccc2)C(=O)C1=O |
| 153 to 154 | O=C1C(CCO)Oc2ccccc2N1Cc1ccncc1 (stereo not drawn) |
| 74 to 75 | Nc1ccc(/C=C/c2c(F)cccc2F)cc1 |
| 35 to 39 | C=CCC(O)c1ccc2ccccc2c1 (stereo not drawn) |
| 101 to 102 | COc1ccc(CC(O)c2cc(OC)cc(OC)c2)cc1 (stereo not drawn) |
| 194 | NS(=O)(=O)c1ccc(C2=C(c3ccc(-c4cscn4)cc3)C(=O)OC2)cc1F |
| 130 to 131 | COCCOc1ccc(NC(=O)OCc2ccccc2)cc1C(=O)O |
| 237 to 238 | Cc1ccc2c(c1C#N)c(Sc1ccc(Cl)cc1)c(C)n2CC(=O)O |
| 115 | COCCOc1cc(N(C)S(=O)(=O)c2ccccn2)c2[nH]c(C3=NCC(CN4CCS(=O)(=O)CC4)S3)cc2c1 (stereo not drawn) |
| 117 to 119 | O=[N+]([O-])c1ccc(-c2ccc(OCCCCCCO)cc2)cc1 |
| 167 to 169 | CCC1Cn2c(ncc(C(=O)O)c2=O)-c2ccccc21 (stereo not drawn) |
